Assay results reported in the supplement of paper PMC12592484.

Columns and labels:
Experiment in all cases: drug sensitivity score (DSS2, normalised partial AUC of dose-response, 72 h CellTiter-Glo viability) (DSS (dimensionless)); higher = more sensitive (stronger growth inhibition / cytotoxicity); extreme values may be limits of the assay
[1] = test system: CAF#3 (primary prostate cancer-associated fibroblasts of myCAF-like type)
Method in brief: (§1)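 The drug sensitivity score reported here is a partial area under the fitted logistic dose–response curve, divided by the log of the curve's upper asymptote and computed in BREEZE; higher values denote greater sensitivity. Low-passage primary prostate cancer-associated fibroblasts, PF179T, WPMY-1, LNCaP and 22Rv1 cells were seeded into 384-well plates preloaded with compounds at five doses across a 10,000-fold range. CellTiter-Glo 2.0 luminescence gave viability at 72 h, scaled to vehicle and positive-control wells.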

[2] = test system: CAF#4 (primary prostate cancer-associated fibroblasts of iCAF-like type)
Method in brief: as §1

[3] = test system: CAF#1 (primary prostate cancer-associated fibroblasts of myCAF-like type)
Method in brief: as §1

[4] = test system: CAF#5 (primary prostate cancer-associated fibroblasts of myCAF-like type)
Method in brief: as §1

[5] = test system: PF179T
Method in brief: as §1

[6] = test system: LNCAP
Method in brief: as §1

[7] = test system: CAF#2 (primary prostate cancer-associated fibroblasts of iCAF-like type)
Method in brief: as §1

[8] = test system: WPMY-1
Method in brief: as §1

[9] = test system: CAF#6 (primary prostate cancer-associated fibroblasts of iCAF-like type)
Method in brief: as §1

[10] = test system: CAF#7 (primary prostate cancer-associated fibroblasts of myCAF-like type)
Method in brief: as §1

[11] = test system: 22Rv1
Method in brief: as §1

SMILES	drug sensitivity score [1]	drug sensitivity score [2]	drug sensitivity score [3]	drug sensitivity score [4]	drug sensitivity score [5]	drug sensitivity score [6]	drug sensitivity score [7]	drug sensitivity score [8]	drug sensitivity score [9]	drug sensitivity score [10]	drug sensitivity score [11]
O=C(/C=C/c1cccc(S(=O)(=O)Nc2ccccc2)c1)NO [Belinostat] (tested concentration range 1-10000 nM)	4.8	10	10	8.6	9.8	19.5	12.3	18.5	6.8	6.6	19.6
Nc1nc(Nc2ccc3c(c2)CC[C@@H](N2CCCC2)CC3)nn1-c1cc2c(nn1)-c1ccccc1CCC2 [Bemcentinib] (tested concentration range 1-10000 nM)	8.6	1.8	2.5	4.1	5	5.4	3.2	8.5	5.7	2.7	5
N#CC(c1ccnc(OCc2ccc(CN3CCOCC3)cc2)n1)c1nc2ccccc2s1 (stereo unspecified) [Bentamapimod] (tested concentration range 1-10000 nM)	0	3.4	1.7	0	0	5.2	2.6	2.8	0	0	1.8
C=C(c1ccc(C(=O)O)cc1)c1cc2c(cc1C)C(C)(C)CCC2(C)C [Bexarotene] (tested concentration range 1-10000 nM)	0	3.7	4.7	3.8	10.2	0	10.1	2.1	0	1.2	1.6
CC(O)(CS(=O)(=O)c1ccc(F)cc1)C(=O)Nc1ccc(C#N)c(C(F)(F)F)c1 (stereo unspecified) [Bicalutamide] (tested concentration range 1-10000 nM)	1.4	0	1.7	1.2	0.2	2.3	1.5	0	1.1	0.5	0.5
CCNC(=O)CCC/C=C\C[C@@H]1[C@@H](/C=C/[C@@H](O)CCc2ccccc2)[C@H](O)C[C@@H]1O [Bimatoprost] (tested concentration range 0.6-5500 nM)	0.1	0	0	0	0	0	0	0	0	0	0
Cn1cnc2c(F)c(Nc3ccc(Br)cc3F)c(C(=O)NOCCO)cc21 [Binimetinib] (tested concentration range 0.1-1000 nM)	0	0	0	0.8	0	0	2.2	0.9	0	0.2	8.7
Cc1sc2c(c1C)C(c1ccc(Cl)cc1)=N[C@@H](CC(=O)Nc1ccc(O)cc1)c1nnc(C)n1-2 [Birabresib] (tested concentration range 1-10000 nM)	11.8	3.4	9.4	3.1	2.8	19.8	9.9	11.9	5.1	3	13.4
CC[C@H](NC(=O)[C@H](C)NC)C(=O)N1C[C@@H](O)C[C@H]1Cc1c(-c2[nH]c3cc(F)ccc3c2C[C@@H]2C[C@H](O)CN2C(=O)[C@H](CC)NC(=O)[C@H](C)NC)[nH]c2cc(F)ccc12 [Birinapant] (tested concentration range 0.1-1000 nM)	0	0	0	0	0	0.1	0	0	0.8	0	0
Cc1c(N)nc([C@H](CC(N)=O)NC[C@H](N)C(N)=O)nc1C(=O)N[C@H](C(=O)N[C@H](C)[C@@H](O)[C@H](C)C(=O)N[C@H](C(=O)NCCc1nc(-c2nc(C(=O)NCCC[S+](C)C)cs2)cs1)[C@@H](C)O)[C@@H](OC1OC(CO)C(O)C(O)C1OC1OC(CO)C(O)C(OC(N)=O)C1O)c1cnc[nH]1 (stereo partly specified) [Bleomycin] (tested concentration range 1-10000 nM)	5.7	5.7	0.6	3.2	3.3	7.5	3.9	0.4	7.7	9.7	3.7
CC(C)C[C@H](NC(=O)[C@H](Cc1ccccc1)NC(=O)c1cnccn1)B(O)O [Bortezomib] (tested concentration range 0.1-1000 nM)	26.9	20	23.9	28.1	20.9	28.8	30.1	30.6	23.7	24.3	24.9
COc1cc(Nc2c(C#N)cnc3cc(OCCCN4CCN(C)CC4)c(OC)cc23)c(Cl)cc1Cl [Bosutinib] (tested concentration range 1-10000 nM)	6.6	5.8	7.4	6.2	4.8	10.1	8.5	9.2	5.1	4.1	7.7
COc1cc(N2CCC(N3CCN(C)CC3)CC2)ccc1Nc1ncc(Cl)c(Nc2ccccc2P(C)(C)=O)n1 [Brigatinib] (tested concentration range 0.1-1000 nM)	3.1	2.1	4	3.6	2.2	0	3.5	2.4	3.9	3	1.7
Cc1cc2c(F)c(Oc3ncnn4cc(OC[C@@H](C)O)c(C)c34)ccc2[nH]1 [Brivanib] (tested concentration range 0.1-1000 nM)	0	0	0	0	0	1.2	0	0	0	0	0
CCC/C=C/C=C/C(=O)O[C@H]1/C(=C/C(=O)OC)C[C@H]2C[C@H]([C@@H](C)O)OC(=O)C[C@H](O)C[C@@H]3C[C@H](OC(C)=O)C(C)(C)[C@](O)(C[C@@H]4C/C(=C/C(=O)OC)C[C@H](/C=C/C(C)(C)[C@]1(O)O2)O4)O3 [Bryostatin 1] (tested concentration range 0-100 nM)	0.6	0.5	4.2	3	0	0.1	3.4	1.3	2.6	4	0
Cc1noc2c1-c1ccccc1C(c1ccc(Cl)cc1)=N[C@H]2CC(N)=O [CPI-0610] (tested concentration range 1-10000 nM)	8.4	1.4	7	4.1	4.1	13	6.5	7.9	4.5	1.8	9.2
CO[C@H]1C(=O)[C@]2(C)[C@@H](OC)C[C@H]3OC[C@@]3(OC(C)=O)[C@H]2[C@H](OC(=O)c2ccccc2)[C@]2(O)C[C@H](OC(=O)[C@H](O)[C@@H](NC(=O)OC(C)(C)C)c3ccccc3)C(C)=C1C2(C)C [Cabazitaxel] (tested concentration range 0.1-1000 nM)	14.2	13	14.6	15.8	22.2	35.6	18.1	28.2	18.4	26.4	26.5
COc1cc2nccc(Oc3ccc(NC(=O)C4(C(=O)Nc5ccc(F)cc5)CC4)cc3)c2cc1OC [Cabozantinib] (tested concentration range 0.1-1000 nM)	5.4	3.9	4.6	7.4	4.1	7.1	7.9	3.8	3.7	5.6	0.3
CCCCCOC(=O)Nc1nc(=O)n([C@@H]2O[C@H](C)[C@@H](O)[C@H]2O)cc1F [Capecitabine] (tested concentration range 1-10000 nM)	0	0	0	0	0	0	0	0	0	0	0
NC1(C(=O)N[C@@H](CCO)c2ccc(Cl)cc2)CCN(c2nc[nH]c3nccc2-3)CC1 [Capivasertib] (tested concentration range 1-10000 nM)	0	0.3	4.5	3.6	4.6	23.5	4.1	3	2.7	2.4	7.2
CNC(=O)c1ccc(-c2cnc3ncc(Cc4ccc5ncccc5c4)n3n2)cc1F [Capmatinib] (tested concentration range 0.1-1000 nM)	0	0	0	0	0.4	0	3.1	0.1	0	0	0
